Usually Kd stands for the constant that tells how readily two partners part at equilibrium. Broadly, the IC50 is the concentration at which inhibition is half-maximal. One may read the GI50 as the concentration that inhibits growth by half. What is called solubility is the concentration that dissolves in the medium under given conditions. High values mean a readily soluble substance, low ones a poorly soluble substance.

Data on 20 molecules can be found in ChEMBL document CHEMBL5126528, “Recent strategies targeting Embryonic Ectoderm Development (EED) for cancer therapy: Allosteric inhibitors, PPI inhibitors, and PROTACs” (Eur J Med Chem, 2022).

The target in data set [1] is T1, Polycomb protein EED (Homo sapiens, UniProt O75530). The experiment in a line: Binding affinity to EED (unknown origin) assessed as dissociation constant.
T1 sequence (O75530 whole entry, the tested form may be a part): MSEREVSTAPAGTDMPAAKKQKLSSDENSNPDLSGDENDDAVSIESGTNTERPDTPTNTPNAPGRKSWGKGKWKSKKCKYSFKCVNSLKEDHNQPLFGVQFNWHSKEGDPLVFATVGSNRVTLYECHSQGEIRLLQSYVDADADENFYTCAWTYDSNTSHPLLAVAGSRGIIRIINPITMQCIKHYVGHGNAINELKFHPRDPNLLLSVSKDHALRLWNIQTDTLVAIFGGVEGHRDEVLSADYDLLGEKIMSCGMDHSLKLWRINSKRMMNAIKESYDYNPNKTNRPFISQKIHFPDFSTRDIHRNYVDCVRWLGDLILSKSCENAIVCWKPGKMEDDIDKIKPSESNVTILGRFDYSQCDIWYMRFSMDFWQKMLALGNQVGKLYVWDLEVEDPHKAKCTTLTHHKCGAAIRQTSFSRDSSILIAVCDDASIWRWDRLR
Data set [2] has as its target T1, Polycomb protein EED. The experiment in a line: Inhibition of human EED (76 to 441 residues) expressed in Escherichia coli strain BL21(DE3) by alpha screen assay. In general terms: Alpha assays give light when donor and acceptor beads are brought close together.
Data set [3] has as its target T1, Polycomb protein EED. The experiment in a line: Inhibition of EED (unknown origin).
A short description of data set [4]: Inhibition of PRC2 (unknown origin). The arrangement: species or system Homo sapiens.
Data set [5] deals with T1, Polycomb protein EED. In words: Binding affinity to EED (unknown origin) assessed as dissociation constant by SPR analysis. (In general: Surface plasmon resonance follows binding to a sensor surface in real time, without labels.)
Data set [6] deals with T1, Polycomb protein EED. In words: Inhibition of human N-terminal His-6 tagged EED expressed in Escherichia coli strain […] by SPR analysis.
Data set [7] deals with T1, Polycomb protein EED. The experiment in a line: Binding affinity to human N-terminal His-6 tagged EED expressed in Escherichia coli strain […] by SPR analysis.
Data set [8] deals with KARPAS-422. The experiment in a line: Antiproliferative activity against human KARPAS-422 cells assessed as cell growth inhibition measured after 7 to 10 days by celltitre-glo-luminescent assay. It counts as functional. The conditions noted are these: time 7-10 day.
Data set [9] in a line: Solubility of the compound at pH 7.4. The conditions noted are these: buffer. It counts as physicochemical.
Data set [10] deals with Pfeiffer. The experiment in a line: Antitumor activity against human Pfeiffer cells xenografted in NOD/SCID mouse assessed as tumor growth inhibition at 100 mg/kg, bid, po for 36 days relative to control. The class given is functional. The conditions noted are these: 864 h, time 36 day, read-out: TGI. Background: In xenograft studies the graft and the host belong to different species.

Data set [11] deals with KARPAS-422. The experiment in a line: Antitumor activity against human KARPAS-422 cells xenografted in NOD/SCID mouse assessed as tumor growth inhibition at 100 mg/kg, bid, po for 36 days relative to control. The class given is functional. The note with it: KARPAS-422, 864 h, time 36 day, read-out: TGI.
Data set [12] concerns KARPAS-422. The experiment in a line: Antitumor activity against human KARPAS-422 cells xenografted in NOD/SCID mouse assessed as tumor growth inhibition at 40 mg/kg, bid, po for 36 days relative to control. The conditions noted are these: KARPAS-422, 864 h, time 36 day, read-out: TGI. It counts as functional.
The target in data set [13] is T1, Polycomb protein EED. The experiment in a line: Inhibition of His-tagged EED (unknown origin) incubated for 30 mins in presence of biotinylated H3K27me3 peptide (19 to 33 aa) by alpha screening competitive binding assay method.
In data set [14] the test system is Pfeiffer. The experiment in a line: Antitumor activity against human Pfeiffer cells xenografted in NOD/SCID mouse assessed as tumor growth inhibition at 40 mg/kg, bid, po for 36 days relative to control. The class given is functional. The conditions noted are these: 864 h, time 36 day, read-out: TGI.
A short description of data set [15]: Antitumor activity against […] cells xenografted in mouse assessed as tumor growth inhibition at 30 mg/kg relative to control. It counts as functional. The note with it: read-out: TGI.
For data set [16], the system named is Pfeiffer. In words: Antitumor activity against human Pfeiffer cells assessed as tumor growth inhibition at 100 mg/kg, po, bid for 38 days relative to control. It counts as functional. The conditions noted are these: 912 h, time 38 day, read-out: TGI.
The subject of data set [17] is KARPAS-422. In words: Antitumor activity against human KARPAS-422 cells assessed as tumor growth inhibition at 100 mg/kg, po, bid for 38 days relative to control. The note with it: KARPAS-422, 912 h, time 38 day, read-out: TGI. The class given is functional.
A short description of data set [18]: Inhibition of FITC-labeled EZH2 (39 to 63 residues) (unknown origin)/N-terminal 6x His-tagged human EED protein interaction by incubated for 2 hrs FP-based competitive assay.
The test system of data set [19] is Pfeiffer. In words: Antiproliferative activity against human Pfeiffer cells treated for 14 days. The class given is functional, cell-based. The conditions noted are these: 336 h.
The subject of data set [20] is KARPAS-422. The experiment in a line: Antiproliferative activity against human KARPAS-422 cells treated for 11 days. It counts as functional, cell-based. The note with it: KARPAS-422, 264 h.
The nature of data set [21]: Antiproliferative activity against human ARCaP cells expressing sh RNA EPLIN.
Data set [22] relates to LNCaP C4-2B. In words: Antiproliferative activity against human LNCaP C4-2B cells expressing TaxR.
Data set [23] concerns LNCaP C4-2B. The experiment in a line: Antiproliferative activity against human LNCaP C4-2B cells.
In the next data set the test system is LNCaP C4-2. In words: Antiproliferative activity against human LNCaP C4-2 cells.
A short description of data set [24]: Antiproliferative activity against human ARCaPE cells expressing sh Ctrl. The conditions noted are these: ARCaP.
The nature of data set [25]: Inhibition of PRC2 HMTase activity in human G-401 cells using nucleosome core particles as substrate in presence of activation peptide H3K27me3 (21 to 44 residues).
The nature of data set [26]: Oral bioavailability in CD-1 mouse. It counts as ADME, organism-based. The conditions noted are these: in vivo.
Data set [27] in a line: Inhibition of GST-tagged EZH2/FLAG-tagged EED (unknown origin) protein protein interaction incubated for 1 hr by AlphaLISA method. The arrangement: species or system Homo sapiens.
The subject of data set [28] is BC. In words: Inhibition of cell growth in human multiple BC cells bearing EZH2 […] mutant. It counts as functional, cell-based.
Data set [29] deals with BC. In words: Inhibition of cell growth in human multiple BC cells bearing wildtype EZH2. It counts as functional, cell-based.
Data set [30] has as its system Lymphoma cell line. In words: Inhibition of cell growth in human Lymphoma cell line bearing wildtype EZH2. The class given is functional, cell-based.
Data set [31] relates to Lymphoma cell line. The experiment in a line: Inhibition of cell growth in human Lymphoma cell line bearing EZH2 […] mutant. It counts as functional, cell-based.

Structures are written as SMILES. Values after ≈ are worked out from the molar mass of the structure shown. Some results are limits rather than exact numbers.

For the molecule `Cc1nc(NCc2cccc3c2OCO3)sc1-c1ccn(C)n1`, at Polycomb protein EED [1], the Kd was 5200 nM. Moreover, the IC50 on Polycomb protein EED [2] came to 2100 nM.

On to `Cc1ncccc1-c1cnc(NCC2Cc3cc(F)ccc3O2)n2cc(C#N)nc12` (configuration not stated), for which the IC50 against Polycomb protein EED [3] was less than 100 nM.

The molecule `Cc1ncccc1-c1cnc(NCc2c(F)cc(N)c3c2CCO3)n2cnnc12` yielded an IC50 in data set [4] of 50 nM. Further, the Kd on Polycomb protein EED [5] worked out at 0.5 nM.

Regarding `Cc1ncsc1-c1ccc(CNC(=O)[C@@H]2C[C@@H](O)CN2C(=O)[C@@H](NC(=O)COc2ccc(OCCNC(=O)CCc3ccc(-c4cnc(NCc5c(F)ccc6c5CCO6)n5cnnc45)c(N)n3)cc2)C(C)(C)C)cc1`, the midpoint of inhibition against Polycomb protein EED [6], the IC50, lay at 6.76 nM. The molecule further had a Kd on Polycomb protein EED [7] of 0.631 nM. The concentration for 50% growth inhibition (GI50) in the data set on KARPAS-422 [8] was 45 nM.

`Cc1ncccc1-c1cnc(NCc2c(F)cc(C#N)c3c2CCO3)n2cnnc12` returned a concentration for half-maximal inhibition (IC50) in data set [4] of 102 nM. Further, the solubility in [9] came to 3 µM (≈ 1.2 µg/mL). For the same molecule, the Kd on Polycomb protein EED [5] amounted to 15 nM.

For `[2H]C([2H])(Nc1ncc(-c2cccnc2C)c(=O)n1C)c1c(F)ccc2c1CCO2`, the inhibition in vivo at 100 mg/kg in the data set on Pfeiffer [10] stood at 96%; in the data set on KARPAS-422 [11], 85%; in the data set on Pfeiffer [16] it was 96%; with KARPAS-422 [17], 85%. The inhibition in vivo at 40 mg/kg was 75% with KARPAS-422 [12] and 83% in the data set with Pfeiffer [14]. The 50% inhibitory concentration (IC50) on Polycomb protein EED [3] and on Polycomb protein EED [13] was 4.5 nM in each case. In [15], the inhibition in vivo at 30 mg/kg turned out to be 59.3%.

`Cc1sc(NC(=O)CCCCC(=O)Nc2sc(C)c(C)c2C(N)=O)c(C(N)=O)c1C` came in with an IC50 in data set [18] of 54900 nM.

With `CC(=O)N1CC=C(c2cnc(NCC3Cc4cc(F)ccc4O3)n3cnnc23)CC1` (configuration not stated), the IC50 was 0.7 nM in the data set with Pfeiffer [19], less than 20 nM on Polycomb protein EED [3] and 7 nM in the data set on KARPAS-422 [20].

Molecule `Cc1nc(CCC(=O)NCCCCC(=O)N[C@H](C(=O)N2C[C@H](O)C[C@H]2C(=O)NCc2ccc(-c3scnc3C)cc2)C(C)(C)C)ccc1-c1cnc(NCc2c(F)ccc3c2CCO3)n2cnnc12` showed an IC50 against Polycomb protein EED [6] of 7.76 nM. The molecule also showed a Kd at Polycomb protein EED [7] of 0.537 nM. For the same molecule, in the data set with KARPAS-422 [8], the GI50 worked out at 57 nM.

`Cc1ccc(C(C2=C(O)CC(C)(C)CC2=O)C2C(=O)CC(C)(C)CC2=O)s1` (configuration not stated): in data set [18], the IC50 worked out at 63800 nM.

In the case of `CCOP(=O)(OCC)C(NC(=O)[C@H](Cc1ccc(-c2ccccc2)cc1)NC(=O)/C=C/c1ccc(-c2ccccc2)cc1)P(=O)(OCC)OCC`, the IC50 in data set [21] was found to be 260 nM; with LNCaP C4-2B [22] it was 6870 nM; in the data set on LNCaP C4-2B [23], 91100 nM; with LNCaP C4-2, 56100 nM; in [24] it was 64900 nM.

For the molecule `CN1CC=C(c2cnc(NCC3Cc4cc(F)ccc4O3)n3cnnc23)CC1` (configuration not stated), the 50% inhibitory concentration (IC50) was 2 nM in the data set with Pfeiffer [19], less than 20 nM on Polycomb protein EED [3] and 2.8 nM in the data set on KARPAS-422 [20].

On to `Cc1ncccc1-c1cnc(NCc2c(F)cc(O)c3c2CCO3)n2cnnc12`, for which the concentration for half-maximal inhibition (IC50) in data set [4] turned out to be 15 nM. The solubility in [9] was determined as 5 µM (≈ 1.96 µg/mL).

Turning to `Cc1ncccc1-c1cnc(NCc2c(F)cc(F)c3c2CCO3)n2cnnc12`, the IC50 in data set [4] was 11 nM. The molecule further showed a solubility in data set [9] of 4 µM (≈ 1.58 µg/mL). Also, the Kd on Polycomb protein EED [5] amounted to 1.2 nM.

`CS(=O)(=O)c1ccc(-c2cnc(NCc3ccco3)n3cnnc23)cc1`: the values for the IC50 (on Polycomb protein EED [3]; in data set [25]) were 20 nM and 220 nM, respectively. Moreover, in [26], the F amounted to 10%.

In the case of `COc1ccc(CCN2CCC(Nc3nc4ccccc4n3Cc3ccc(F)cc3)CC2)cc1` [ASTEMIZOLE], the IC50 in [18] stood at 93800 nM.

As for `CCCCc1ccc(Nc2nnc(SCc3occc3C(=O)O)s2)cc1`, the IC50 in data set [27] is 32000 nM.

For `C=CC(=O)Nc1cc(Nc2nccc(-c3cn(C)c4ccccc34)n2)c(OC)cc1N(C)CCN(C)C` [OSIMERTINIB], the IC50 with BC [28], in the data set with BC [29], in the data set on Lymphoma cell line [30] and in the data set on Lymphoma cell line [31] was 15 nM throughout.

The molecule `Cc1ncccc1-c1cnc(NCC2Cc3cc(F)ccc3O2)c2nncn12` (configuration not stated) came in with an IC50 against Polycomb protein EED [3] of less than 100 nM.

For `CN1CC=C(c2cnc(NCC3Cc4cc(F)ccc4O3)c3nncn23)CC1` (configuration not stated), the IC50 on Polycomb protein EED [3] was less than 100 nM.
